Test results as given in patent US10030006B2, “Coumarin based Hsp90 inhibitors with urea and ether substituents” (University of Kansas, priority 2013, dated 2018).
Where two headings read alike, the source gives them in different places. One block for each compound: values may come before it.

Legend:
[1] = test system: SKBr3 (estrogen receptor negative, Her2 over-expressing breast cancer cells); assay: Anti-proliferation assay (MTS/PMS, 72 h), SKBr3; assay type: cell-based
Protocol: (§1) Cells were maintained in a 1:1 mixture of Advanced DMEM/F12 (Gibco) supplemented with non-essential amino acids, L-glutamine (2 mM), streptomycin (500 μg/mL), penicillin (100 units/mL), and 10% FBS. Cells were grown to confluence in a humidified atmosphere (37° C., 5% CO2), seeded (2000/well, 100 μL) in 96-well plates, and allowed to attach overnight. Compound at varying concentrations in DMSO (1% DMSO final concentration) was added, and cells were returned to the incubator for 72 h. At 72 h, the number of viable cells was determined using an MTS/PMS cell proliferation kit (Promega) per the manufacturer's instructions. Cells incubated in 1% DMSO were used at 100% proliferation, and values were adjusted accordingly. IC50 values were calculated from separate experiments performed in triplicate using GraphPad Prism.
(§2) The anti-proliferative activity of these compounds is evaluated against two breast cancer cell lines, SKBr3 (estrogen receptor negative, Her2 over-expressing breast cancer cells) and MCF-7 (estrogen receptor positive breast cancer cells).

[2] = test system: MCF-7 (estrogen receptor positive breast cancer cells); assay: Anti-proliferation assay (MTS/PMS, 72 h), MCF-7; assay type: cell-based
Protocol: as §1, §2

[3] = Table 9, non-aryl ureas, Breast Cancer, read-out: IC50 SKBr3
[4] = Table 9, non-aryl ureas, Breast Cancer, read-out: IC50 MCF-3
[5] = Homo sapiens, MCF7, Table 1, modified benzamide coumarin derivatives, read-out: MCF-7
[6] = Homo sapiens, MCF7, Table 2, modified benzamide and biphenylamide derivatives (in μM), read-out: MCF-7
[7] = Homo sapiens, SK-BR-3, Table 8, biphenyl ureas, Breast Cancer, read-out: IC50 SKBr3
[8] = Homo sapiens, MCF7, Table 8, biphenyl ureas, Breast Cancer, read-out: IC50 MCF-3
[9] = Homo sapiens, SK-BR-3, Table 1, modified benzamide coumarin derivatives, read-out: SKBr3
[10] = Homo sapiens, SK-BR-3, Table 4, alkylamino analogues, read-out: SKBr3
[11] = Homo sapiens, MCF7, Table 4, alkylamino analogues, read-out: MCF-7
[12] = Homo sapiens, SK-BR-3, Table 5, alkylether derivatives with cyclic N-substitutions, read-out: SKBr3
[13] = Homo sapiens, MCF7, Table 5, alkylether derivatives with cyclic N-substitutions, read-out: MCF-7
[14] = Table 3, cycloamine analogues, read-out: SKBr3
[15] = Table 3, cycloamine analogues, read-out: MCF-7
[16] = Homo sapiens, SK-BR-3, Table 2, modified benzamide and biphenylamide derivatives (in μM), read-out: SKBr3
[17] = Table 10, modified initial novobiocin analogs, read-out: SkBr3, IC50

IC50 [1, 3]: 0.23 ± 0.08 µM
IC50 [2, 4]: 0.38 ± 0.04 µM
SMILES: Cc1c(OC2CCN(C)CC2)ccc2cc(NC(=O)NCc3ccc(Oc4ccccc4)cc3)c(=O)oc12

IC50 [2, 5]: 1.09 ± 0.1 µM
IC50 [2, 6]: 1.09 ± 0.1 µM
IC50 ([2]; Homo sapiens, MCF7, amide versus urea linkage, read-out: IC50 for MCF-3): 1.09 µM
SMILES: CC(C)=CCc1cc(C(=O)Nc2cc3ccc(OC4CCN(C)CC4)c(C)c3oc2=O)ccc1O [Compound 2]

IC50 [1, 7]: 0.44 µM
IC50 [2, 8]: 0.5 µM
SMILES: Cc1ccc(NC(=O)Nc2cc3ccc(OC4CCN(C)CC4)c(C)c3oc2=O)cc1-c1cccc(Cl)c1 [CH3, Cl, 1-(3′-chloro-6-methyl-[1,1′-biphenyl]-3-yl)-3-(8-methyl-7-((1-methylpiperidin-4-yl)oxy)-2-oxo-2H-chromen-3-yl)urea]

IC50 [1, 9]: 1.4 ± 0.11 µM
IC50 [2, 5]: 1.12 ± 0.16 µM
SMILES: C#CCOc1ccc(C(=O)Nc2cc3ccc(OC4CCN(C)CC4)c(C)c3oc2=O)cc1CC=C(C)C [Compound 18, N-(8-methyl-7-(1-methylpiperidin-4-yloxy)-2-oxo-2H-chromen-3-yl)-3-(3-methylbut-2-enyl)-4-(prop-2-ynyloxy)benzamide]

IC50 [1, 16]: 0.33 µM
IC50 [2, 6]: 0.72 ± 0.08 µM
SMILES: CC(C)=CCc1cc(C(=O)Nc2cc3ccc(OC4CCN(C)CC4)c(C)c3oc2=O)ccc1OCCN(C)C [Compound 23, 4-(2-(dimethylamino)ethoxy)-N-(8-methyl-7-(1-methylpiperidin-4-yloxy)-2-oxo-2H-chromen-3-yl)-3-(3-methylbut-2-enyl)benzamide]

IC50 [1, 7]: 0.38 µM
IC50 [2, 8]: 0.32 µM
SMILES: Cc1c(OC2CCN(C)CC2)ccc2cc(NC(=O)Nc3cccc(-c4ccccc4)c3)c(=O)oc12 [H, H, 1-([1,1′-biphenyl]-3-yl)-3-(8-methyl-7-((1-methylpiperidin-4-yl)oxy)-2-oxo-2H-chromen-3-yl)urea]

IC50 ([1]; Homo sapiens, SK-BR-3, Table 6, substituted phenyl ureas, Breast Cancer, read-out: IC50 SKBr3): 1.38 µM
IC50 ([2]; Homo sapiens, MCF7, Table 6, substituted phenyl ureas, Breast Cancer, read-out: IC50 MCF-3): 1.34 µM
SMILES: Cc1c(OC2CCN(C)CC2)ccc2cc(NC(=O)Nc3ccc(O)cc3)c(=O)oc12 [p-OH, 1-(4-hydroxyphenyl)-3-(8-methyl-7-((1-methylpiperidin-4-yl)oxy)-2-oxo-2H-chromen-3-yl)urea]

IC50 [1, 16]: 0.21 µM
IC50 [2, 6]: 0.47 ± 0.081 µM
SMILES: CC(C)=CCc1cc(C(=O)Nc2cc3ccc(OC4CCN(C)CC4)c(C)c3oc2=O)ccc1OC1CCN(C)CC1 [Compound 25, N-(8-methyl-7-(1-methylpiperidin-4-yloxy)-2-oxo-2H-chromen-3-yl)-3-(3-methylbut-2-enyl)-4-(1-methylpiperidin-4-yloxy)benzamide]

IC50 [1, 3]: 0.56 ± 0.07 µM
IC50 [2, 4]: 0.55 ± 0.02 µM
SMILES: Cc1ccc(CNC(=O)Nc2cc3ccc(OC4CCN(C)CC4)c(C)c3oc2=O)cc1

IC50 [1, 17]: 0.31 ± 0.09 µM
SMILES: Cc1ccc(NC(=O)Nc2cc3ccc(OC4CCN(C)CC4)c(C)c3oc2=O)cc1C [Compound 10]

IC50 [1, 3]: 0.68 ± 0.06 µM
IC50 [2, 4]: 0.65 ± 0.11 µM
SMILES: COc1ccc(CNC(=O)Nc2cc3ccc(OC4CCN(C)CC4)c(C)c3oc2=O)cc1

IC50 [1, 3]: 1.04 ± 0.07 µM
IC50 [2, 4]: 1.05 ± 0.07 µM
SMILES: Cc1c(OC2CCN(C)CC2)ccc2cc(NC(=O)NCc3ccc(Cl)cc3)c(=O)oc12

IC50 [1, 16]: 0.25 ± 0.02 µM
IC50 [2, 6]: 0.46 ± 0.05 µM
SMILES: CC(C)=CCc1cc(C(=O)Nc2cc3ccc(OC4CCN(C)CC4)c(C)c3oc2=O)ccc1OCCCN(C)C [Compound 24, 4-(3-(dimethylamino)propoxy)-N-(8-methyl-7-(1-methylpiperidin-4-yloxy)-2-oxo-2H-chromen-3-yl)-3-(3-methylbut-2-enyl)benzamide]

IC50 ([1]; Table 6, substituted phenyl ureas, Breast Cancer, read-out: IC50 SKBr3): 1.15 µM
IC50 ([2]; Table 6, substituted phenyl ureas, Breast Cancer, read-out: IC50 MCF-3): 0.96 µM
SMILES: COc1cccc(NC(=O)Nc2cc3ccc(OC4CCN(C)CC4)c(C)c3oc2=O)c1 [m-OCH3]

IC50 [1, 17]: 0.21 ± 0.06 µM
SMILES: Cc1c(OCCC2CCCCN2)ccc2cc(NC(=O)Nc3ccc(Cl)cc3)c(=O)oc12 (centres unmarked) [Compound 11]

IC50 [1, 17]: 0.17 ± 0.01 µM
SMILES: Cc1c(OC2CCN(C)CC2)ccc2cc(NC(=O)Nc3ccc(Cl)cc3)c(=O)oc12 [Compound 8]

IC50 [2, 15]: 1.09 ± 0.1 µM
SMILES: CC(C)=CCc1cc(C(=O)Nc2cc3ccc(OC4CCN(C)CC4)c(C)c3oc2=O)ccc1O [drawing 134]

Continued, compound first:

SMILES: CC(C)=CCc1cc(C(=O)Nc2cc3ccc(OCCCN(C)C(C)(C)C)c(C)c3oc2=O)ccc1O [Compound 68k, N-(7-(3-(tert-butyl(methyl)amino)propoxy)-8-methyl-2-oxo-2H-chromen-3-yl)-4-hydroxy-3-(3-methylbut-2-en-1-yl)benzamide]
IC50 [1, 10]: 0.88 ± 0.1 µM
IC50 [2, 11]: 1.14 ± 0.11 µM

SMILES: CCCCOc1ccc(C(=O)Nc2cc3ccc(OC4CCN(C)CC4)c(C)c3oc2=O)cc1CC=C(C)C [Compound 17, 4-butoxy-N-(8-methyl-7-(1-methylpiperidin-4-yloxy)-2-oxo-2H-chromen-3-yl)-3-(3-methylbut-2-enyl)benzamide]
IC50 [1, 9]: 1.4 ± 0.07 µM
IC50 [2, 5]: 1.44 ± 0.05 µM

SMILES: CC(C)=CCc1cc(C(=O)Nc2cc3ccc(OCCCNC4CCCCC4)c(C)c3oc2=O)ccc1O [Compound 70a, N-(7-(3-(cyclohexylamino)propoxy)-8-methyl-2-oxo-2H-chromen-3-yl)-4-hydroxy-3-(3-methylbut-2-en-1-yl)benzamide]
IC50 [1, 12]: 0.66 ± 0.12 µM
IC50 [2, 13]: 1.07 ± 0.35 µM

SMILES: CC(=O)Oc1ccc(C(=O)Nc2cc3ccc(OCC4CCCN(C)C4)c(C)c3oc2=O)cc1CC=C(C)C (centres unmarked)
IC50 [1, 14]: 0.74 ± 0.01 µM
IC50 [2, 15]: 1.65 ± 0.11 µM

SMILES: CC(C)=CCc1cc(C(=O)Nc2cc3ccc(OCCCNCC(C)C)c(C)c3oc2=O)ccc1O [Compound 68f, 4-hydroxy-N-(7-(3-(isobutylamino)propoxy)-8-methyl-2-oxo-2H-chromen-3-yl)-3-(3-methylbut-2-en-1-yl)benzamide]
IC50 [1, 10]: 1.03 ± 0.02 µM
IC50 [2, 11]: 1.32 ± 0.06 µM

SMILES: CCNCCCOc1ccc2cc(NC(=O)c3ccc(O)c(CC=C(C)C)c3)c(=O)oc2c1C [Compound 68a, N-(7-(3-(ethylamino)propoxy)-8-methyl-2-oxo-2H-chromen-3-yl)-4-hydroxy-3-(3-methylbut-2-en-1-yl)benzamide]
IC50 [1, 10]: 0.72 ± 0.34 µM
IC50 [2, 11]: 0.98 ± 0.35 µM

SMILES: CC(C)=CCc1cc(C(=O)Nc2cc3ccc(OCCCN4CCOCC4)c(C)c3oc2=O)ccc1O [drawing 145]
IC50 [1, 14]: > 50 µM
IC50 [2, 15]: > 50 µM

SMILES: CC(=O)Oc1ccc(C(=O)Nc2cc3ccc(OCC4CCN(C)C4)c(C)c3oc2=O)cc1CC=C(C)C (centres unmarked)
IC50 [1, 14]: 0.88 ± 0.09 µM
IC50 [2, 15]: 1.88 ± 0.45 µM

SMILES: CC(C)=CCc1cc(C(=O)Nc2cc3ccc(OCCCNCc4ccccc4)c(C)c3oc2=O)ccc1O [Compound 70e, N-(7-(3-(benzylamino)propoxy)-8-methyl-2-oxo-2H-chromen-3-yl)-4-hydroxy-3-(3-methylbut-2-en-1-yl)benzamide]
IC50 [1, 12]: 0.47 ± 0.16 µM
IC50 [2, 13]: 0.91 ± 0.01 µM

SMILES: CC(C)=CCc1cc(C(=O)Nc2cc3ccc(OCCCN4CCCC4)c(C)c3oc2=O)ccc1O [drawing 147]
IC50 [1, 14]: 0.72 ± 0.01 µM
IC50 [2, 15]: 0.99 ± 0.04 µM

SMILES: CC(C)=CCc1cc(C(=O)Nc2cc3ccc(OCCCNC(C)(C)c4ccccc4)c(C)c3oc2=O)ccc1O [Compound 70g, 4-hydroxy-N-(8-methyl-2-oxo-7-(3-((2-phenylpropan-2-yl)amino)propoxy)-2H-chromen-3-yl)-3-(3-methylbut-2-en-1-yl)benzamide]
IC50 [1, 12]: 0.96 ± 0.01 µM
IC50 [2, 13]: 1.07 ± 0.01 µM

SMILES: CC(C)=CCc1cc(C(=O)Nc2cc3ccc(OCCCNC(C)(C)C)c(C)c3oc2=O)ccc1O [Compound 68j, N-(7-(3-(tert-butylamino)propoxy)-8-methyl-2-oxo-2H-chromen-3-yl)-4-hydroxy-3-(3-methylbut-2-en-1-yl)benzamide]
IC50 [1, 10]: 0.66 ± 0.06 µM
IC50 [2, 11]: 0.95 ± 0.1 µM

SMILES: CC(C)=CCc1cc(C(=O)Nc2cc3ccc(OCCCNC(C)C)c(C)c3oc2=O)ccc1O [Compound 68g, 4-hydroxy-N-(7-(3-(isopropylamino)propoxy)-8-methyl-2-oxo-2H-chromen-3-yl)-3-(3-methylbut-2-en-1-yl)benzamide]
IC50 [1, 10]: 0.75 ± 0.26 µM
IC50 [2, 11]: 0.74 ± 0.16 µM

SMILES: CCN(CC)CCCOc1ccc2cc(NC(=O)c3ccc(O)c(CC=C(C)C)c3)c(=O)oc2c1C [Compound 68c]
IC50 ([1]; Table 4, alkylamino analogues, read-out: SKBr3): 4.9 ± 0.42 µM
IC50 ([2]; Table 4, alkylamino analogues, read-out: MCF-7): 6.39 ± 0.04 µM

SMILES: CC(C)=CCc1cc(C(=O)Nc2cc3ccc(OCCCN(C)[C@H](C)c4ccccc4)c(C)c3oc2=O)ccc1O [Compound 70f, (R)-4-hydroxy-N-(8-methyl-7-(3-(methyl(1-phenylethyl)amino)propoxy)-2-oxo-2H-chromen-3-yl)-3-(3-methylbut-2-en-1-yl)benzamide]
IC50 [1, 12]: 1 ± 0.31 µM
IC50 [2, 13]: 1.45 ± 0.2 µM

SMILES: CC(C)=CCc1cc(C(=O)Nc2cc3ccc(OCCCN(C)C(C)C)c(C)c3oc2=O)ccc1O [Compound 68h, 4-hydroxy-N-(7-(3-(isopropyl(methyl)amino)propoxy)-8-methyl-2-oxo-2H-chromen-3-yl)-3-(3-methylbut-2-en-1-yl)benzamide]
IC50 [1, 10]: 0.57 ± 0.13 µM
IC50 [2, 11]: 1.05 ± 0.06 µM

SMILES: CC(=O)Oc1ccc(C(=O)Nc2cc3ccc(OCC4CCCNC4)c(C)c3oc2=O)cc1CC=C(C)C (centres unmarked)
IC50 [1, 14]: 0.62 ± 0.04 µM
IC50 [2, 15]: 0.82 ± 0.07 µM
